Reference: US20100151104A1, “Preservative System For Beverages Based On Combinations Of Trans-Cinnamic Acid, Lauric Arginate, And Dimethyl Dicarbonate” (priority 2008, published 2010)
Values joined by “and” are separate entries in the source; they are usually repeats but may differ in a detail not shown here. Equal entries are not always repeated.

Assays:
[1] = pKa and un-dissociated fraction of cinnamic acid; type: physicochemical
Description: It should be noted that cinnamic acid has a particularly high plc, value (4.42) and at least 45% of the cinnamic acid added to beverage is in the form of the un-dissociated acid.

[2] = tested on: fungal strains; conditions: prior art; incubation no greater than 72 hours; cited from earlier work
[3] = tested on: Zygosaccharomyces bailii; assay: Growth in 10% apple juice beverage with combinations of LAE & cinnamic acid; log (QA/Qa+QB/Qb) calculation; type: cell-based
Excerpt: Trans-cinnamic acid and lauric arginate were combined in the following beverage formulation: [table] […] The analysis of the interaction between lauric arginate and cinnamic acid can be refined through use of a mathematical method developed by Voorspuij and Nass (Arch. Int. pharmacodyn. 59:211 1957) (generally accepted among those practiced in the art.) Herein, the interactions between two active substances can be explored. First the quantity (Qa=Molar Cone) of compound A required for an end point (concentration required to stabilize product for 16 weeks) is established. Similarly, the quantity (Qb =Molar cone) of substance B required to establish the same endpoint is established. Thereafter, mixtures of A & B, in quantities QA & Qs are established that also define endpoints. […] If the sum of the ratios for a mixture of A & Bare=1, then the interaction is considered additive. […] Calculation of log (QA/Qa+QB/Qb) for LAE+trans Cinnamic Acid vs Zygosaccharomyces bailii

[4] = tested on: Zygosaccharomyces bisporous and Zygosaccharomyces bailii; assay: Tolerance of fungal strains to cinnamic acid over 16 weeks incubation; type: cell-based
Description: Over a period of incubation of 16 weeks, fungal strains are found to be tolerant to cinnamic acid at concentrations as high as 300 ppm, or even as high as 450 ppm cinnamic acid (pH 3.4). Thus, cinnamic acid, as a stand alone preservative, would need to be present at a concentrations as high as 450 ppm (e.g. between 450-500) in order to be assured that of preservation against spoilage by organisms such as Zygosaccharomyces bisporous and Zygosaccharomyces bailii for a period of at least 16 weeks. […] Beverage product case packaged in a container and which must pass through lengthy channels of distribution before reaching the consumer need be stable for a period as long as 16 weeks.

[5] = tested on: yeast and mold; conditions: recommended by inventor & manufacturer of LAE; cited from earlier work
[6] = stand alone, end point = concentration required to stabilize product for 16 weeks

## O=C(O)/C=C/c1ccccc1 [Cinnamic Acid, trans-cinnamic acid]
[1]; beverage pH 4.5
  cinnamic acid in the form of the un-dissociated acid: at least 45%
[1]; pH 5.5
  cinnamic acid in the form of the un-dissociated acid: ≤ 7.6%
[2]
  MIC: 125-180 ppm
[3]; QLAE 0, QCA 300
  QA/Qa + QB/Qb: 1.00
  QLAE/QLAE*: 0.00
  QNaB/QNAB*: 1.00
  log (QA/Qa + QB/Qb): 0.0000
[3]; pH 3.0, LAE 0 ppm, Cinnamic Acid 10 ppm
  amount of growth (normalized) to control: 89%
[3]; pH 3.0, LAE 0 ppm, Cinnamic Acid 20 ppm
  amount of growth (normalized) to control: 82%
[3]; pH 3.0, LAE 0 ppm, Cinnamic Acid 50 ppm
  amount of growth (normalized) to control: 85%
[3]; pH 3.0, LAE 0 ppm, Cinnamic Acid 75 ppm
  amount of growth (normalized) to control: 45%
[3]; pH 3.0, LAE 0 ppm, Cinnamic Acid 100 ppm
  amount of growth (normalized) to control: 36%
[3]; pH 3.5, LAE 0 ppm, Cinnamic Acid 10 ppm
  amount of growth (normalized) to control: 97%
[3]; pH 3.5, LAE 0 ppm, Cinnamic Acid 20 ppm
  amount of growth (normalized) to control: 92%
[3]; pH 3.5, LAE 0 ppm, Cinnamic Acid 50 ppm
  amount of growth (normalized) to control: 76%
[3]; pH 3.5, LAE 0 ppm, Cinnamic Acid 75 ppm
  amount of growth (normalized) to control: 57%
[3]; pH 3.5, LAE 0 ppm, Cinnamic Acid 100 ppm
  amount of growth (normalized) to control: 48%
[3]; pH 4.0, LAE 0 ppm, Cinnamic Acid 10 ppm
  amount of growth (normalized) to control: 103%
[3]; pH 4.0, LAE 0 ppm, Cinnamic Acid 20 ppm
  amount of growth (normalized) to control: 94%
[3]; pH 4.0, LAE 0 ppm, Cinnamic Acid 50 ppm
  amount of growth (normalized) to control: 78%
[3]; pH 4.0, LAE 0 ppm, Cinnamic Acid 75 ppm
  amount of growth (normalized) to control: 74%
[3]; pH 4.0, LAE 0 ppm, Cinnamic Acid 100 ppm
  amount of growth (normalized) to control: 56%
[3]; [6]
  QCA* (quantity of cinnamic acid alone required for the end point): QCA* 300
[4]; incubation of 16 weeks, pH 3.4
  concentration of cinnamic acid to which fungal strains are tolerant: 300 ppm and 450 ppm
[4]; stand alone preservative, 16 weeks
  stand alone concentration needed for preservation against spoilage for at least 16 weeks: 450-500 ppm

## CCCCCCCCCCCC(=O)N[C@@H](CCCNC(=N)N)C(=O)OCC.Cl [LAE, ethyl-N-lauroyl-L-argniate hydrochloride]
[3]; QLAE 76, QCA 0
  QA/Qa + QB/Qb: 1.00
  QLAE/QLAE*: 1.00
  QNaB/QNAB*: 0.00
  log (QA/Qa + QB/Qb): 0.0000
[3]; pH 3.0, LAE 2.5 ppm, Cinnamic Acid 0 ppm
  amount of growth (normalized) to control: 81%
[3]; pH 3.0, LAE 5 ppm, Cinnamic Acid 0 ppm
  amount of growth (normalized) to control: 88%
[3]; pH 3.0, LAE 7.5 ppm, Cinnamic Acid 0 ppm
  amount of growth (normalized) to control: 82%
[3]; pH 3.0, LAE 10 ppm, Cinnamic Acid 0 ppm
  amount of growth (normalized) to control: 79%
[3]; pH 3.0, LAE 15 ppm, Cinnamic Acid 0 ppm
  amount of growth (normalized) to control: 75%
[3]; pH 3.5, LAE 2.5 ppm, Cinnamic Acid 0 ppm
  amount of growth (normalized) to control: 95%
[3]; pH 3.5, LAE 5 ppm, Cinnamic Acid 0 ppm
  amount of growth (normalized) to control: 75%
[3]; pH 3.5, LAE 7.5 ppm, Cinnamic Acid 0 ppm
  amount of growth (normalized) to control: 75%
[3]; pH 3.5, LAE 10 ppm, Cinnamic Acid 0 ppm
  amount of growth (normalized) to control: 78%
[3]; pH 3.5, LAE 15 ppm, Cinnamic Acid 0 ppm
  amount of growth (normalized) to control: 86%
[3]; pH 4.0, LAE 2.5 ppm, Cinnamic Acid 0 ppm
  amount of growth (normalized) to control: 94%
[3]; pH 4.0, LAE 5 ppm, Cinnamic Acid 0 ppm
  amount of growth (normalized) to control: 80%
[3]; pH 4.0, LAE 7.5 ppm, Cinnamic Acid 0 ppm
  amount of growth (normalized) to control: 85%
[3]; pH 4.0, LAE 10 ppm, Cinnamic Acid 0 ppm
  amount of growth (normalized) to control: 114%
[3]; pH 4.0, LAE 15 ppm, Cinnamic Acid 0 ppm
  amount of growth (normalized) to control: 124%
[3]; [6]
  QLAE* (quantity of LAE alone required for the end point): QLAE* 76
[5]
  recommended stand alone concentration to stabilize beverages against spoilage: 128 ppm
